# In patent US20250282768A1 (Janssen Pharmaceutica NV, priority 2022, published 2025):
# System: p-IKKa levels in L363 (NIK translocated multiple myeloma) cells
# Assay: Assay 2: Effect of compounds on p-IKKa levels in L363 (NIK translocated multiple myeloma) cells
# Type: cell-based
# Conditions: Homo sapiens, L-363, 6 h, read-out: Assay 2 IC50 (nM), p-IKKa (Ser 176/180) in BAFF stimulated L363 cells with MG132, 6 h; average if tested more than once
# How it was run: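 Read-out is p-IKKa Ser176/180 by AlphaLISA SureFire in lysates. Cells were BAFF-primed (250 ng/ml) overnight or left unstimulated, then exposed 6 h at 37 °C to compound with MG132 (10 μM), 0.3% DMSO. IC50 from sigmoidal curve fit, normalized between stimulated and unstimulated controls.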
row,Structure (SMILES),IC50 [nM]
1,"C[C@H](Nc1nccc(-c2cccc(-c3cc([C@]4(O)CCN(C)C4=O)on3)n2)n1)C(=O)N1CC(F)(F)C1 [Example 170, (R)-3-(3-(6-(2-(((S)-1-(3,3-Difluoroazetidin-1-yl)-1-oxopropan-2-yl)amino)pyrimidin-4-yl)pyridin-2-yl)isoxazol-5-yl)-3-hydroxy-1-methylpyrrolidin-2-one]",50 to 500
2,"Cc1cc(-c2cccc(-c3cc([C@]4(O)CCN(C)C4=O)on3)n2)nc(Nc2cnn(C)c2)n1 [Example 207, (R)-3-Hydroxy-1-methyl-3-(3-(6-(6-methyl-2-((1-methyl-1H-pyrazol-4-yl)amino)pyrimidin-4-yl)pyridin-2-yl)isoxazol-5-yl)pyrrolidin-2-one]",> 500
3,"CN1CC[C@@](O)(c2cn(-c3cccc(-c4ccnc(Nc5cnn(C)c5Cl)n4)n3)cn2)C1=O (single isomer, unassigned) [Example 107]",> 500
4,"Cc1c(Nc2nccc(-c3cccc(-c4cc([C@@]5(O)CCN(C)C5=O)on4)n3)n2)cnn1C1CCOCC1 [Example 187, (S)-3-Hydroxy-1-methyl-3-(3-(6-(2-((5-methyl-1-(tetrahydro-2H-pyran-4-yl)-1H-pyrazol-4-yl)amino)pyrimidin-4-yl)pyridin-2-yl)isoxazol-5-yl)pyrrolidin-2-one]",< 50
5,"C[C@@H]1C[C@@](O)(c2cc(-c3cccc(-c4ccnc(Nc5ccn(C)n5)n4)n3)no2)C(=O)N1C [Example 92, (3R,5R)-3-Hydroxy-1,5-dimethyl-3-(3-(6-(2-((1-methyl-1H-pyrazol-3-yl)amino)pyrimidin-4-yl)pyridin-2-yl)isoxazol-5-yl)pyrrolidin-2-one]",50 to 500
6,"CCn1cc(Nc2nccc(-c3cccc(-n4cc([C@]5(O)CCN(C)C5=O)nn4)n3)n2)cn1 [Example 335, (R)-3-(1-(6-(2-((1-Ethyl-1H-pyrazol-4-yl)amino)pyrimidin-4-yl)pyridin-2-yl)-1H-1,2,3-triazol-4-yl)-3-hydroxy-1-methylpyrrolidin-2-one]",< 50
7,"COc1nn(C)cc1Nc1nccc(-c2cccc(-c3cc([C@]4(O)CCN(C)C4=O)on3)c2)n1 [Example 17, (R)-3-Hydroxy-3-(3-(3-(2-((3-methoxy-1-methyl-1H-pyrazol-4-yl)amino)pyrimidin-4-yl)phenyl)isoxazol-5-yl)-1-methylpyrrolidin-2-one]",50 to 500
8,"CCn1cc(Nc2nccc(-c3cccc(-c4cc([C@]5(O)CCN(C)C5=O)no4)n3)n2)cn1 [Example 91, (R)-3-(5-(6-(2-((1-Ethyl-1H-pyrazol-4-yl)amino)pyrimidin-4-yl)pyridin-2-yl)isoxazol-3-yl)-3-hydroxy-1-methylpyrrolidin-2-one]",< 50
9,"CN1C(=O)[C@](O)(c2cc(-c3cccc(-c4ccnc(Nc5ccn(C)n5)n4)n3)no2)C[C@H]1C(F)(F)F [Example 1, (3R,5S)-3-Hydroxy-1-methyl-3-(3-(6-(2-((1-methyl-1H-pyrazol-3-yl)amino)pyrimidin-4-yl)pyridin-2-yl)isoxazol-5-yl)-5-(trifluoromethyl)pyrrolidin-2-one]",50 to 500
10,"CN1CC[C@@](O)(c2cc(-c3cccc(-c4ccnc(Nc5cnc6c(c5)CCCO6)n4)n3)no2)C1=O [Example 474, (R)-3-(3-(6-(2-((3,4-Dihydro-2H-pyrano[2,3-b]pyridin-6-yl)amino)pyrimidin-4-yl)pyridin-2-yl)isoxazol-5-yl)-3-hydroxy-1-methylpyrrolidin-2-one]",< 50
11,"CN1CC[C@@](O)(c2cc(-c3cccc(-c4ccnc(NC5CSC5)n4)n3)no2)C1=O [Example 446, (R)-3-Hydroxy-1-methyl-3-(3-(6-(2-(thietan-3-ylamino)pyrimidin-4-yl)pyridin-2-yl)isoxaozl-5-yl)pyrrolidin-2-one]",50 to 500
12,"[2H]C1([2H])N(C)C(=O)[C@](O)(c2cc(-c3cccc(-c4ccnc(Nc5cnn(C)c5)n4)n3)no2)C1([2H])[2H] [Example 5, (R)-3-Hydroxy-1-methyl-3-(3-(6-(2-((1-methyl-1H-pyrazol-4-yl)amino)pyrimidin-4-yl)pyridin-2-yl)isoxazol-5-yl)pyrrolidin-2-one-4,4,5,5-d4]",< 50
13,"CN1CC[C@@](O)(c2cc(-c3cccc(-c4ccnc(Nc5cnn6c5CCCC6)n4)n3)on2)C1=O [Example 406, (R)-3-Hydroxy-1-methyl-3-(5-(6-(2-((4,5,6,7-tetrahydropyrazolo[1,5-a]pyridin-3-yl)amino)pyrimidin-4-yl)pyridin-2-yl)isoxazol-3-yl)pyrrolidin-2-one]",< 50
14,"Cc1cc(Nc2nccc(-c3cccc(-c4cc([C@@]5(O)C(=O)N(C)CC5(F)F)on4)n3)n2)ccn1 [Example 408, (R)-4,4-Difluoro-3-hydroxy-1-methyl-3-(3-(6-(2-((2-methylpyridin-4-yl)amino)pyrimidin-4-yl)pyridin-2-yl)isoxazol-5-yl)pyrrolidin-2-one]",< 50
15,"CN1CC(F)(F)[C@@](O)(c2cc(-c3cccc(-c4ccnc(Nc5cnn6c5CCC6)n4)n3)no2)C1=O [Example 243, (R)-3-(3-(6-(2-((5,6-Dihydro-4H-pyrrolo[1,2-b]pyrazol-3-yl)amino)pyrimidin-4-yl)pyridin-2-yl)isoxazol-5-yl)-4,4-difluoro-3-hydroxy-1-methylpyrrolidin-2-one]",< 50
16,"CCn1cc(Nc2nccc(-c3cccc(-c4cc([C@@]5(O)C(=O)N(C)CC5(F)F)on4)n3)n2)cn1 [Example 261, (R)-3-(3-(6-(2-((1-Ethyl-1H-pyrazol-4-yl)amino)pyrimidin-4-yl)pyridin-2-yl)isoxazol-5-yl)-4,4-difluoro-3-hydroxy-1-methylpyrrolidin-2-one]",< 50
17,"C[C@H](Nc1nccc(-c2cccc(-c3cc([C@]4(O)CCN(C)C4=O)on3)n2)n1)C(=O)N1CCC1 [Example 168, (R)-3-(3-(6-(2-(((S)-1-(Azetidin-1-yl)-1-oxopropan-2-yl)amino)pyrimidin-4-yl)pyridin-2-yl)isoxazol-5-yl)-3-hydroxy-1-methylpyrrolidin-2-one]",50 to 500
18,"CN1CC[C@@](O)(c2cc(-c3cccc(-c4ccnc(NC5CCN(S(=O)(=O)C6CC6)CC5)n4)n3)no2)C1=O [Example 447, (R)-3-(3-(6-(2-((1-(Cyclopropylsulfonyl)piperidin-4-yl)amino)pyrimidin-4-yl)pyridin-2-yl)isoxazol-5-yl)-3-hydroxy-1-methylpyrrolidin-2-one]",50 to 500
19,"CN1CC[C@@](O)(c2cc(-c3cccc(-c4cc(Cl)nc(Nc5ccn(C)n5)n4)n3)no2)C1=O [Example 101, (R)-3-(3-(6-(6-Chloro-2-((1-methyl-1H-pyrazol-3-yl)amino)pyrimidin-4-yl)pyridin-2-yl)isoxazol-5-yl)-3-hydroxy-1-methylpyrrolidin-2-one]",> 500
20,"C[C@H](Nc1nccc(-c2cccc(-c3cc([C@]4(O)CCN(C)C4=O)on3)n2)n1)c1ccn(C)n1 (single isomer, unassigned) [Example 405, (R)-3-hydroxy-1-methyl-3-(3-(6-(2-(((*S)-1-(1-methyl-1H-pyrazol-3-yl)ethyl)amino)pyrimidin-4-yl)pyridin-2-yl)isoxazol-5-yl)pyrrolidin-2-one]",50 to 500
21,"CN1CC[C@@](O)(c2cc(-c3cccc(-c4ccnc(Nc5ncn(CC(F)(F)F)n5)n4)n3)no2)C1=O [Example 305, (R)-3-Hydroxy-1-methyl-3-(3-(6-(2-((1-(2,2,2-trifluoroethyl)-1H-1,2,4-triazol-3-yl)amino)pyrimidin-4-yl)pyridin-2-yl)isoxazol-5-yl)pyrrolidin-2-one]",50 to 500
22,"CN1CC[C@@](O)(c2cc(-c3cccc(-c4ccnc(Nc5cnn(C)c5Cl)n4)n3)n[nH]2)C1=O (single isomer, unassigned) [Example 104]",> 500
23,"C[C@@H](Nc1nccc(-c2cccc(-c3cc([C@]4(O)CCN(C)C4=O)on3)n2)n1)c1ccn(C)n1 (single isomer, unassigned) [Example 404, (R)-3-Hydroxy-1-methyl-3-(3-(6-(2-(((*R)-1-(1-methyl-1H-pyrazol-3-yl)ethyl)amino)pyrimidin-4-yl)pyridin-2-yl)isoxazol-5-yl)pyrrolidin-2-one]",> 500
24,"C[C@H](O)[C@@H](Nc1nccc(-c2cccc(-c3cc([C@]4(O)CCN(C)C4=O)on3)n2)n1)c1ccccc1 [Example 158, (R)-3-Hydroxy-3-(3-(6-(2-(((1 S,2S)-2-hydroxy-1-phenylpropyl)amino)pyrimidin-4-yl)pyridin-2-yl)isoxazol-5-yl)-1-methylpyrrolidin-2-one]",> 500
25,"C[C@H](Nc1nccc(-c2cccc(-c3cc([C@]4(O)CCN(C)C4=O)on3)n2)n1)c1ncc[nH]1 [Example 370, (R)-3-(3-(6-(2-(((S)-1-(1H-Imidazol-2-yl)ethyl)amino)pyrimidin-4-yl)pyridin-2-yl)isoxazol-5-yl)-3-hydroxy-1-methylpyrrolidin-2-one]",> 500
26,"CN1CC[C@@](O)(c2cc(-c3cccc(-c4ccnc(Nc5nnc(C6CC6)o5)n4)n3)no2)C1=O [Example 304, (R)-3-(3-(6-(2-((5-Cyclopropyl-1,3,4-oxadiazol-2-yl)amino)pyrimidin-4-yl)pyridin-2-yl)isoxazol-5-yl)-3-hydroxy-1-methylpyrrolidin-2-one]",50 to 500
27,"CN1CC[C@@](O)(c2cc(-c3cccc(-c4ccnc(N[C@H]5CC[C@H](O)C5)n4)c3)no2)C1=O [Example 13, (R)-3-Hydroxy-3-(3-(3-(2-(((1 S,3S)-3-hydroxycyclopentyl)amino)pyrimidin-4-yl)phenyl)isoxazol-5-yl)-1-methylpyrrolidin-2-one]",> 500
28,"Cc1cc(Nc2nccc(-c3cccc(-c4cc([C@]5(O)CCN(C)C5=O)on4)n3)n2)nn1C [Example 282, (R)-3-(3-(6-(2-((1,5-Dimethyl-1H-pyrazol-3-yl)amino)pyrimidin-4-yl)pyridin-2-yl)isoxazol-5-yl)-3-hydroxy-1-methylpyrrolidin-2-one]",< 50
